Tests used:
MET = biological target: T1, MET (Homo sapiens, UniProt P08581); assay: MET Mobility Shift Assay; settings: biochemical assay IC50; 100 μM ATP, 60 minute kinase reaction
T1 construct: purchased Carna Biosciences 08-151
Procedure, shortened: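 Recombinant MET at 0.625 nM was pre-incubated 30 min at room temperature with 1.5 μM FLPeptide30 and 10 mM MgCl2 in HEPES buffer with DTT. The reaction was started with 100 μM ATP, ran 60 min, and was stopped with EDTA. Microfluidic mobility-shift % conversion gave IC50.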

MET D1228N = biological target: T2, MET D1228N (Homo sapiens, UniProt P08581, D1228N); assay: MET D1228N Mobility Shift Assay; settings: biochemical assay IC50; 100 μM ATP, 60 minute kinase reaction
T2 construct: purchased Signalchem M52-12IG
Procedure, shortened: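 Enzyme at 0.313 nM preincubated 30 min at room temperature with 1.5 μM FAM-labelled peptide and 10 mM MgCl2 in HEPES buffer with DTT; reaction started with 100 μM ATP, run 60 min, stopped with EDTA. Substrate/product separated by microfluidic mobility shift; IC50 from inhibition of % conversion.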

Ba/F3-TPR-MET cells = biological target: T3, Ba/F3-TPR-MET cells (Homo sapiens, UniProt P08581); assay: CellTiter-Glo Cell Viability Assay, Ba/F3-TPR-MET; assay type: cell-based; settings: 72 hours
T3 construct: fused on or other part: P12270 (Nucleoprotein TPR)
Procedure, shortened: (§1)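 Ba/F3 cells carrying TPR-MET or TPR-MET-D1228N, 3000 per well, were exposed for 72 h at 37 °C to 9-point 3-fold compound dilutions at 0.1% DMSO. Viability was read as ATP by CellTiter-Glo 2.0 luminescence, and IC50 values came from curve fitting.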

[1] = biological target: T4, Ba/F3-TPR-MET-D1228N cells (Homo sapiens, UniProt P08581, D1228N, cells depend on it); assay: CellTiter-Glo Cell Viability Assay, Ba/F3-TPR-MET-D1228N; assay type: cell-based; settings: 72 hours
T4 construct: fused on or other part: P12270 (Nucleoprotein TPR)
Procedure, shortened: as §1

T1 sequence (P08581 25-1390): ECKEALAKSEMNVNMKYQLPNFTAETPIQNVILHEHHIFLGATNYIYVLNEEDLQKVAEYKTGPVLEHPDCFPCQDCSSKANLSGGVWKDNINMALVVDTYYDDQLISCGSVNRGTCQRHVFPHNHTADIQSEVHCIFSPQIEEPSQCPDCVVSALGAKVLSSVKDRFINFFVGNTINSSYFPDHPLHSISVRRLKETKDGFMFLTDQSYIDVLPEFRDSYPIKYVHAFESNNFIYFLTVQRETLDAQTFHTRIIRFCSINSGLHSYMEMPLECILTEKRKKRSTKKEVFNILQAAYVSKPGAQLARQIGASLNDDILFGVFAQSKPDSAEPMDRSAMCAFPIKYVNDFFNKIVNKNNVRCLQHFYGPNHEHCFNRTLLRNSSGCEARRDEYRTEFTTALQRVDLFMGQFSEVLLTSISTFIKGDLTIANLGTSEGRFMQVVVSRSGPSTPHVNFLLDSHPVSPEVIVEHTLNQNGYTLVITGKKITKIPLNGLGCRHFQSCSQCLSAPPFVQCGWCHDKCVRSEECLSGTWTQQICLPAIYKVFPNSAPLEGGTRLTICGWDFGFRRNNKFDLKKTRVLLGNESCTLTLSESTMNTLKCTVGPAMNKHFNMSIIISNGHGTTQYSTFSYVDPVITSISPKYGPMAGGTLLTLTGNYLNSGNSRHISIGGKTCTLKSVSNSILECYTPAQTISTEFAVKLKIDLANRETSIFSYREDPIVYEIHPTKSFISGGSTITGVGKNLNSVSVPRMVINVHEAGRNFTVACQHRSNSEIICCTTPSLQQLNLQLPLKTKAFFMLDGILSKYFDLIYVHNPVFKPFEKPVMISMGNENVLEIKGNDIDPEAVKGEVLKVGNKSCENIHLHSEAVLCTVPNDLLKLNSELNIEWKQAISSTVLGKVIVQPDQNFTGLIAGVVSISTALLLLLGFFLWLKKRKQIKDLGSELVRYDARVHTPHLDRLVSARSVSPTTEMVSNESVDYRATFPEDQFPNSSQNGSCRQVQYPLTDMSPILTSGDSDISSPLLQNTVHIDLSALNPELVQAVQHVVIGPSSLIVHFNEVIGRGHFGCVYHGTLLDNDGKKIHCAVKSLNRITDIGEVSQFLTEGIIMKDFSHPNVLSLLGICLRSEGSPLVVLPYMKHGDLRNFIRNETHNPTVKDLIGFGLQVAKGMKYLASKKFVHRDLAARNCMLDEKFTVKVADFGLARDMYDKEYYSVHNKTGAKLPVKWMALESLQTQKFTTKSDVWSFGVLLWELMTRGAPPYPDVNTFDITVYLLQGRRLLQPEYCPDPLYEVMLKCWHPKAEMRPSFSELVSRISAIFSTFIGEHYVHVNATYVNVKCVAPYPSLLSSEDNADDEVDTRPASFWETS
T2 sequence (P08581 25-1390 D1228N): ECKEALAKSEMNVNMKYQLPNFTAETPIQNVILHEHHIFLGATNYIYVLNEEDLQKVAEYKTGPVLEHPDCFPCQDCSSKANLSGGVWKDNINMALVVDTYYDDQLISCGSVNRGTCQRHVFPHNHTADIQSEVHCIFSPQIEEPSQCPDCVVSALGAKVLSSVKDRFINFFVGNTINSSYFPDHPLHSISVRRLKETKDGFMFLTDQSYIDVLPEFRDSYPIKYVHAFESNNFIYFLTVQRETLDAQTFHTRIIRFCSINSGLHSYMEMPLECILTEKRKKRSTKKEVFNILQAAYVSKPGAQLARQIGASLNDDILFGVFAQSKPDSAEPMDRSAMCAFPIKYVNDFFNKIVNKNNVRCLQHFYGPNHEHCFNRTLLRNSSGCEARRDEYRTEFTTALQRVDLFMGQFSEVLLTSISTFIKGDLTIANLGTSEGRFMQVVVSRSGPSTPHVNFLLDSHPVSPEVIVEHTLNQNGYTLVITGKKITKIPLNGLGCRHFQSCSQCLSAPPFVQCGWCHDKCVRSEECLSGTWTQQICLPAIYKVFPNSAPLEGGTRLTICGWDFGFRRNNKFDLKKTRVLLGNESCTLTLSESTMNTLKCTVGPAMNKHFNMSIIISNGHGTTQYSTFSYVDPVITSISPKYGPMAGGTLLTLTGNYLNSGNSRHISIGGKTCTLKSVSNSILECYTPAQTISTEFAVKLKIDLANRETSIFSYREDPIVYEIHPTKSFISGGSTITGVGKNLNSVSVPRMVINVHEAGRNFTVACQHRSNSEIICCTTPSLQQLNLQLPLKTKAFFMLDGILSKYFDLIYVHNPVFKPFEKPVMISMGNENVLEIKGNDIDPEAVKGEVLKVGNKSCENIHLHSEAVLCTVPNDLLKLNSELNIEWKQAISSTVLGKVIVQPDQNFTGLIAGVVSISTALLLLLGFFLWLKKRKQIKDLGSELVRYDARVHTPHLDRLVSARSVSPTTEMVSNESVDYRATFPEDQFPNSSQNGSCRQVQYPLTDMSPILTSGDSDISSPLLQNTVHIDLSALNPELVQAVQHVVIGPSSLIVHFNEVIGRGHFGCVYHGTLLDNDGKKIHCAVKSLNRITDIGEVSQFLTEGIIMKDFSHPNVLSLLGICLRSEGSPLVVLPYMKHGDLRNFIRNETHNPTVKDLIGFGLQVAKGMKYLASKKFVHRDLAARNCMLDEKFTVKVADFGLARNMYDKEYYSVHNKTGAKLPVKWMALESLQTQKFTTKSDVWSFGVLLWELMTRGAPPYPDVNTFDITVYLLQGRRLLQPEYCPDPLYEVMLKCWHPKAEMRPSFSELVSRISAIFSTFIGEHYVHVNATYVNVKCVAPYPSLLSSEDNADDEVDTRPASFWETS
T3 sequence (P08581 whole entry, change not shown, the tested form may be a part): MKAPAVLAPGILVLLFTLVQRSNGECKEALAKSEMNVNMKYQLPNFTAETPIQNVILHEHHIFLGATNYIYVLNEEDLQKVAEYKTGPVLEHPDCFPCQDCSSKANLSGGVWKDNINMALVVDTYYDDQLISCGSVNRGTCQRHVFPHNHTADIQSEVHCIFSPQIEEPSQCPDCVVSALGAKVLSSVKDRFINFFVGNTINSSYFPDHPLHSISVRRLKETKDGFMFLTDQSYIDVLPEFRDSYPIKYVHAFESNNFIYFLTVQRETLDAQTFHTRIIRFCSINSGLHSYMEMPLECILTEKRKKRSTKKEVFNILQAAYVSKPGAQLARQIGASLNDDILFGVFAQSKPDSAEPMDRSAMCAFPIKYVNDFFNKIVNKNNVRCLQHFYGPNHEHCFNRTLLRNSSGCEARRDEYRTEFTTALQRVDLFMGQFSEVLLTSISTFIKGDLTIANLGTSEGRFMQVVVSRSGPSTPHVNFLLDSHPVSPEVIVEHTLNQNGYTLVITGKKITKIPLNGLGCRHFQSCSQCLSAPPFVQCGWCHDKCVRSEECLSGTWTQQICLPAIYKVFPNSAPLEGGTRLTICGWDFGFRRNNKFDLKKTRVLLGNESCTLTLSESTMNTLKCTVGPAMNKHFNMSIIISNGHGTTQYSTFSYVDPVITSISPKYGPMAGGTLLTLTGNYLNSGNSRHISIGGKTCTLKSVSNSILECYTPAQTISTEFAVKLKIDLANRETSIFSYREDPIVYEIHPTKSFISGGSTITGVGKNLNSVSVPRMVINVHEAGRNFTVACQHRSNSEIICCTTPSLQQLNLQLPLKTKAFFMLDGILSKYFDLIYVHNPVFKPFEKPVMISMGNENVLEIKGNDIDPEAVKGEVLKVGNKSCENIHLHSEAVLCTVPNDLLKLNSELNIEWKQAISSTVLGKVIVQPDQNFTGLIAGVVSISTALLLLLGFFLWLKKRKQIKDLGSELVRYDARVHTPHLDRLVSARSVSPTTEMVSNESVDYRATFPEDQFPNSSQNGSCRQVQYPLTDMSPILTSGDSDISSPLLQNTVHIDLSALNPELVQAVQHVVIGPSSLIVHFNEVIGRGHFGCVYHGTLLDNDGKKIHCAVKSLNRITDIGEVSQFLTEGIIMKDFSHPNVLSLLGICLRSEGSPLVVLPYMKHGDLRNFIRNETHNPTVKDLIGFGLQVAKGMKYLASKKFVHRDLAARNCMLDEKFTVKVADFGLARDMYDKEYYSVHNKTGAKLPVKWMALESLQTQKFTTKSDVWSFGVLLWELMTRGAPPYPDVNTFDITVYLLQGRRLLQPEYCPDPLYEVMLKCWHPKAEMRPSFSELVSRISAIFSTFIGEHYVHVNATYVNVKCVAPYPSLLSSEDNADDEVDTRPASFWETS

Row | SMILES | IC50 (MET) [nM] | IC50 (MET D1228N) [nM] | EC50 (Ba/F3-TPR-MET cells) [nM] | EC50 [1] [nM]
1 | CNCCOc1ccc2c(Oc3c(F)cc(NC(=O)c4cnccc4OC)cc3F)ccnc2c1 [Example 10, N-(3,5-difluoro-4-((7-(2-(methylamino)ethoxy)quinolin-4-yl)oxy)phenyl)-4-methoxypyridine-3-carboxamide] | ≤ 100 | ≤ 100 | ≤ 100 | ≤ 100
2 | CNCCOc1ccc2c(Oc3c(F)cc(NC(=O)c4cnc(C)cc4OC4CC4)cc3F)ccnc2c1 [Example 115, 4-cyclopropoxy-N-(3,5-difluoro-4-((7-(2-(methylamino)ethoxy)quinolin-4-yl)oxy)phenyl)-6-methylpyridine-3-carboxamide] | ≤ 100 | ≤ 100 | ≤ 100 | ≤ 100
3 | COc1cc2nccc(Oc3c(F)cc(NC(=O)c4cnccc4OC)cc3F)c2cn1 [Example 36, N-{3,5-difluoro-4-[(7-methoxy-1,6-naphthyridin-4-yl)oxy]phenyl}-4-methoxypyridine-3-carboxamide] | ≤ 100 | ≤ 100 | 100 to 1000 | 100 to 1000
4 | COc1ccncc1C(=O)Nc1cc(F)c(Oc2ccnc3cc(OCCO)ccc23)c(F)c1 [Example 41, N-(3,5-difluoro-4-((7-(2-hydroxyethoxy)quinolin-4-yl)oxy)phenyl)-4-methoxypyridine-3-carboxamide] | ≤ 100 | ≤ 100 | 100 to 1000 | ≤ 100
5 | CNCCOc1ccc2c(Oc3c(F)cc(NC(=O)c4ncccc4OC4CC4)cc3F)ccnc2c1 [Example 80, 3-cyclopropoxy-N-[3,5-difluoro-4-({7-[2-(methylamino)ethoxy]quinolin-4-yl}oxy)phenyl]pyridine-2-carboxamide] | ≤ 100 | ≤ 100 | 100 to 1000 | ≤ 100
6 | COCCOc1cc2nccc(Oc3c(F)cc(NC(=O)c4cnccc4OC4CC4)cc3F)c2nc1OC [Example 136, 4-cyclopropoxy-N-(3,5-difluoro-4-{[6-methoxy-7-(2-methoxyethoxy)-1,5-naphthyridin-4-yl]oxy}phenyl)pyridine-3-carboxamide] | ≤ 100 | ≤ 100 | ≤ 100 | ≤ 100
7 | COc1cc2c(Oc3c(F)cc(NC(=O)c4cnc(C)cc4OC4CC4)cc3F)ccnc2cc1OCCO [Example 116, 4-cyclopropoxy-N-(3,5-difluoro-4-{[7-(2-hydroxyethoxy)-6-methoxyquinolin-4-yl]oxy}phenyl)-6-methylpyridine-3-carboxamide] | ≤ 100 | ≤ 100 | ≤ 100 | ≤ 100
8 | COc1cc2nccc(Oc3c(F)cc(NC(=O)c4cnccc4OC)cc3F)c2cc1OCCO [Example 122, N-(3,5-difluoro-4-{[6-(2-hydroxyethoxy)-7-methoxyquinolin-4-yl]oxy}phenyl)-4-methoxypyridine-3-carboxamide] | ≤ 100 | ≤ 100 | ≤ 100 | ≤ 100
9 | CNCCCOc1cc2nccc(Oc3ccc(NC(=O)c4cnccc4OC)c(F)c3F)c2cc1OC [Example 18, N-[2,3-difluoro-4-({6-methoxy-7-[3-(methylamino)propoxy]quinolin-4-yl}oxy)phenyl]-4-methoxypyridine-3-carboxamide] | ≤ 100 | ≤ 100 | 100 to 1000 | ≤ 100
10 | COc1cc2c(Oc3c(F)cc(NC(=O)c4cnccc4OC4CC4)cc3F)ccnc2cc1OCCO [Example 97, 4-cyclopropoxy-N-(3,5-difluoro-4-{[7-(2-hydroxyethoxy)-6-methoxyquinolin-4-yl]oxy}phenyl)pyridine-3-carboxamide] | ≤ 100 | ≤ 100 | ≤ 100 | ≤ 100
11 | COCCOc1cnc2c(Oc3c(F)cc(NC(=O)c4cnccc4OC)cc3F)ccnc2c1 [Example 139, N-(3,5-difluoro-4-((7-(2-methoxyethoxy)-1,5-naphthyridin-4-yl)oxy)phenyl)-4-methoxypyridine-3-carboxamide] | ≤ 100 | ≤ 100 | ≤ 100 | ≤ 100
12 | COc1cc2nccc(Oc3c(F)cc(NC(=O)c4cnccc4OC4CC4)cc3F)c2cn1 [Example 96, 4-cyclopropoxy-N-{3,5-difluoro-4-[(7-methoxy-1,6-naphthyridin-4-yl)oxy]phenyl}pyridine-3-carboxamide] | ≤ 100 | ≤ 100 | 100 to 1000 | 100 to 1000
13 | COC[C@H](C)Oc1nc2c(Oc3c(F)cc(NC(=O)c4cnccc4OC)cc3F)ccnc2cc1OC [Example 146, (S)-N-(3,5-difluoro-4-((7-methoxy-6-((1-methoxypropan-2-yl)oxy)-1,5-naphthyridin-4-yl)oxy)phenyl)-4-methoxynicotinamide] | ≤ 100 | ≤ 100 | ≤ 100 | ≤ 100
14 | COc1ccncc1C(=O)Nc1cc(F)c(Oc2ccnc3cc(OC)c(O[C@@H](C)CO)nc23)c(F)c1 [Example 145, (S)-N-(3,5-difluoro-4-((6-((1-hydroxypropan-2-yl)oxy)-7-methoxy-1,5-naphthyridin-4-yl)oxy)phenyl)-4-methoxynicotinamide] | ≤ 100 | ≤ 100 | ≤ 100 | ≤ 100
15 | COc1cc2nccc(Oc3c(F)cc(NC(=O)c4c(OCC(F)F)ccnc4F)cc3F)c2cc1OCCO [Example 142, N-(3,5-difluoro-4-((6-(2-hydroxyethoxy)-7-methoxyquinolin-4-yl)oxy)phenyl)-4-(2,2-difluoroethoxy)-2-fluoropyridine-3-carboxamide] | ≤ 100 | ≤ 100 | ≤ 100 | ≤ 100
16 | CNCCOc1cc2nccc(Oc3c(F)cc(NC(=O)c4ncccc4OC4CC4)cc3F)c2cc1OC [Example 77, 3-cyclopropoxy-N-[3,5-difluoro-4-({6-methoxy-7-[2-(methylamino)ethoxy]quinolin-4-yl}oxy)phenyl]pyridine-2-carboxamide] | ≤ 100 | ≤ 100 | ≤ 100 | ≤ 100
17 | CNCCOc1cc2nccc(Oc3c(F)cc(NC(=O)c4cnc(F)cc4OC)cc3F)c2cc1OC [Example 44, N-(3,5-difluoro-4-((6-methoxy-7-(2-(methylamino)ethoxy)quinolin-4-yl)oxy)phenyl)-6-fluoro-4-methoxypyridine-3-carboxamide] | ≤ 100 | ≤ 100 | 100 to 1000 | 100 to 1000
18 | CNCCOc1cc2nccc(Oc3c(F)cc(NC(=O)c4cnccc4O[C@H]4CCOC4)cc3F)c2cc1OC [Example 71, N-[3,5-difluoro-4-({6-methoxy-7-[2-(methylamino)ethoxy]quinolin-4-yl}oxy)phenyl]-4-[(3S)-oxolan-3-yloxy]pyridine-3-carboxamide] | ≤ 100 | ≤ 100 | 100 to 1000 | 100 to 1000
19 | CNCCOc1cc2nccc(Oc3c(F)cc(NC(=O)c4cnccc4OC(C)C)cc3F)c2cc1OC [Example 59, N-[3,5-difluoro-4-({6-methoxy-7-[2-(methylamino)ethoxy]quinolin-4-yl}oxy)phenyl]-4-isopropoxypyridine-3-carboxamide] | ≤ 100 | ≤ 100 | ≤ 100 | ≤ 100
20 | CNCCOc1cc2nccc(Oc3c(F)cc(NC(=O)c4cnccc4O[C@@H]4CCOC4)cc3F)c2cc1OC [Example 70, N-[3,5-difluoro-4-({6-methoxy-7-[2-(methylamino)ethoxy]quinolin-4-yl}oxy)phenyl]-4-[(3R)-oxolan-3-yloxy]pyridine-3-carboxamide] | ≤ 100 | ≤ 100 | 100 to 1000 | 100 to 1000
21 | CNCCOc1cc2nccc(Oc3c(F)cc(NC(=O)c4cnccc4OC[C@H](C)F)cc3F)c2cc1OC [Example 62, N-[3,5-difluoro-4-({6-methoxy-7-[2-(methylamino)ethoxy]quinolin-4-yl}oxy)phenyl]-4-[(2S)-2-fluoropropoxy]pyridine-3-carboxamide] | ≤ 100 | ≤ 100 | ≤ 100 | ≤ 100
22 | COc1cc2nccc(Oc3c(F)cc(NC(=O)c4cnccc4OC)cc3F)c2cc1OCC(C)(C)O [Example 125, N-(3,5-difluoro-4-{[6-(2-hydroxy-2-methylpropoxy)-7-methoxyquinolin-4-yl]oxy}phenyl)-4-methoxypyridine-3-carboxamide] | ≤ 100 | ≤ 100 | ≤ 100 | ≤ 100
23 | CNCCCOc1cc2nccc(Oc3c(F)cc(NC(=O)c4cnccc4OC4CCC4)cc3F)c2cc1OC [Example 85, 4-cyclobutoxy-N-(3,5-difluoro-4-((6-methoxy-7-(3-(methylamino)propoxy)quinolin-4-yl)oxy)phenyl)pyridine-3-carboxamide] | ≤ 100 | ≤ 100 | 100 to 1000 | 100 to 1000
24 | CNCCOc1cc2ncnc(Oc3c(F)cc(NC(=O)c4cnccc4OC)cc3F)c2cc1OC [Example 8, N-(3,5-difluoro-4-((6-methoxy-7-(2-(methylamino)ethoxy)quinazolin-4-yl)oxy)phenyl)-4-methoxypyridine-3-carboxamide] | ≤ 100 | ≤ 100 | 100 to 1000 | 100 to 1000

Source: patent US11753395B2 (Kinnate Biopharma Inc., priority 2021, dated 2023)
